As a reminder, the Ki is a measure of affinity in units of concentration, obtained from inhibition or displacement.

This assay concerns the target human α5β3γ2 receptors (α5-GABAA receptor) (Homo sapiens (Human), UniProt P18507+P31644). Kind of assay: 3H-flunitrazepam competition binding, human α5β3γ2 GABAA receptor. The settings on record: HEK293 cell membranes, 1 nM 3H-flunitrazepam; read-out: α5-GABAAR Ki. As to the method: The affinity of the compound to each subtype of GABAA receptor was determined by competing for the binding of ^3H-flunitrazepam to HEK293 cells stably expressing human α1β3γ2, α2β3γ2, α3β3γ2, and α5β3γ2 receptors.
The cells were suspended in 50 mM Tris-HCl buffer (pH=7.4), homogenized 10 times on ice with a homogenizer for 20 seconds, and centrifuged at 1000 g for 10 minutes at 4° C. The supernatant was collected, and the above steps were repeated. The supernatant was centrifuged at 4° C. (33800 g; Thermo, rotor: A27-8×50) for 60 minutes, and the precipitate was resuspended in Tris buffer (50 mM Tris-HCl, 10 mM MgCl2, 0.5 mM EDTA, 10% glycerol). Protein was measured (BCA method, Pierce), and 1 mL aliquots were prepared and stored at −80° C.
The radioligand competition binding assay was performed in a 200 μL system (96-well plate) containing 100 μL of cell membrane. The concentration of ^3H-flunitrazepam was 1 nM and the concentration of the test compound was in the range of […]. Flumazenil was used as a control. 1 μL of 2 mM flumazenil (final concentration […]) was added to the low signal control well (Low control, LC), and 1 μL of DMSO was added to the high signal control well (High control, HC). The final concentration of target membrane protein was […]. All test compound sample storage solutions were 10 mM. The working concentration of the samples was to dilute all the samples to 0.2 mM with DMSO, followed by 4-fold serial gradient dilutions for a total of 8 concentration gradients. The 96-well plate was sealed with a sealing film, and then incubated on a shaker at room temperature for 1 hour. At the same time, the GF/C filter plate was soaked in soaking buffer (0.3% PEI, stored at 4° C.) for at least 0.5 hours. After the binding incubation was completed, the cells were collected onto a GF/C filter plate using a cell harvester. The plate was washed four times with washing buffer (50 mM Tris-HCl, pH 7.4, stored at 4° C.). After drying in a 50° C. oven for 1 hour, the bottom of the dried GF/C filter plate was sealed. The residual radioactivity on the filter membrane was detected using liquid scintillation counting. 50 μL of scintillation fluid was added to each well, and the plate was sealed. The readings were taken using a Microbeta2. The inhibitory activity of the test sample on the binding of ^3H-flunitrazepam to GABAA receptor membrane proteins was calculated, and the IC50 of each test sample was calculated by dose-effect curve fitting (GraphPad Prism 5 software), and the Ki of the sample was calculated from the IC50, thus evaluating the binding ability of the sample to the various subtypes of GABAA receptors.
`Cc1nnn(-c2ccc(C(F)F)cc2)c1COc1ccc(N2CCN(Cc3ncccn3)C(=O)C2)nn1` [Example 93, 4-(6-((1-(4-(Difluoromethyl)phenyl)-4-methyl-1H-1,2,3-triazol-5-yl)methoxy)pyridazin-3-yl)-1-(pyrimidin-2-ylmethyl)piperazin-2-one]: the Ki is 3.14 nM. In the case of `Cc1nnn(-c2ccc(Cl)cc2)c1COc1ccc(N2CCNC(=O)C2)nn1` [Example 164, 4-(6-((1-(4-Chlorophenyl)-4-methyl-1H-1,2,3-triazol-5-yl)methoxy)pyridazin-3-yl)piperazin-2-one] it was 2.4 nM; in that of `CC(=O)NC1CCN(c2ccc(OCc3c(C)nnn3-c3ccc(C(F)F)cc3)nn2)C1` (stereo not shown) [Example 88, N-(1-(6-((1-(4-(Difluoromethyl)phenyl)-4-methyl-1H-1,2,3-triazol-5-yl)methoxy)pyridazin-3-yl)pyrrolidin-3-yl)acetamide], 1.78 nM. In the case of `Cc1nnn(-c2ccc(C(F)F)cc2)c1COc1nnc(N2CCNC(=O)C2)c2ncccc12` [Example 137, 4-(5-((1-(4-(Difluoromethyl)phenyl)-4-methyl-1H-1,2,3-triazol-5-yl)methoxy)pyrido[2,3-d]pyridazin-8-yl)piperazin-2-one], the inhibition constant Ki stood at 0.49 nM. The same measure for `Cc1nnn(-c2ccc(C(F)F)cc2)c1COc1ccc(N2CC(=O)N3CCN(CC(F)(F)F)CC3C2)nn1` (stereo not shown) [Example 91, 2-(6-((1-(4-(Difluoromethyl)phenyl)-4-methyl-1H-1,2,3-triazol-5-yl)methoxy)pyridazin-3-yl)-8-(2,2,2-trifluoroethyl)octahydro-4H-pyrazino[1,2-a]pyrazin-4-one]: 1.13 nM. In the case of `Cc1cc(OCc2c(C)nnn2-c2ccc(C(F)F)cc2)nnc1N1CCNC(=O)C1` [Example 82, 4-(6-((1-(4-(Difluoromethyl)phenyl)-4-methyl-1H-1,2,3-triazol-5-yl)methoxy)-4-methylpyridazin-3-yl)piperazin-2-one] it was 0.63 nM; in that of `Cc1nnn(-c2ccc(C(F)F)cc2)c1COc1ccc(N2CC(C(C)C)N3CCNC[C@H]3C2=O)nn1` (stereo partly shown) [Example 215], 36.1 nM; in that of `O=C1CN(c2ccc(OCc3c(Cl)nnn3-c3ccc(C(F)F)cc3)nn2)C[C@H]2COCCN12` [Example 183, (S)-8-(6-((4-Chloro-1-(4-(difluoromethyl)phenyl)-1H-1,2,3-triazol-5-yl)methoxy)pyridazin-3-yl)hexahydropyrazino[2,1-c][1,4]oxazin-6(1H)-one], 1.37 nM. `Cc1nnn(-c2ccc(C(F)F)cc2)c1COc1ccc(N2CC(C(=O)Nc3cccnc3F)C2)nn1` [Example 151, 1-(6-((1-(4-(Difluoromethyl)phenyl)-4-methyl-1H-1,2,3-triazol-5-yl)methoxy)pyridazin-3-yl)-N-(2-fluoropyridin-3-yl)azetidine-3-carboxamide]: the inhibitory constant (Ki) was found to be 1.36 nM.

On to `Cc1nnn(-c2ccc(C(F)F)cc2)c1COc1ccc(N2CC(=O)N3CC4CC3(C4)C2)nn1` [Example 179, 2-(6-((1-(4-(Difluoromethyl)phenyl)-4-methyl-1H-1,2,3-triazol-5-yl)methoxy)pyridazin-3-yl)tetrahydro-6H-7,8a-methanopyrrolo[1,2-a]pyrazin-4(1H)-one], for which the Ki was 6.33 nM. In the case of `O=C1CN(c2ccc(OCc3c(CC4CC4)nnn3-c3ccc(C(F)F)cc3)nn2)CCN1` [Example 186] it was 4.62 nM; in that of `Cc1nnn(-c2ccc(C(F)F)cc2)c1COc1ccc(N2CCN3C(=O)COC[C@@H]3C2)nn1` [Example 9, (S)-8-(6-((1-(4-(Difluoromethyl)phenyl)-4-methyl-1H-1,2,3-triazol-5-yl)methoxy)pyridazin-3-yl)hexahydropyrazino[2,1-c][1,4]oxazin-4(3H)-one], 1.46 nM; in that of `Cc1nnn(-c2ccc(CO)cc2)c1COc1ccc(N2CCNC(=O)C2)nn1` [Example 79, 4-(6-((1-(4-(hydroxymethyl)phenyl)-4-methyl-1H-1,2,3-triazol-5-yl)methoxy)pyridazin-3-yl)piperazin-2-one], 32.5 nM. The same measure for `Cc1nnn(-c2ccc(C(F)F)cc2)c1COc1ccc(N2CCN(CCCc3ccc(Cl)cc3)C(=O)C2)nn1` [Example 144, 1-(3-(4-Chlorophenyl)propyl)-4-(6-((1-(4-(difluoromethyl)phenyl)-4-methyl-1H-1,2,3-triazol-5-yl)methoxy)pyridazin-3-yl)piperazin-2-one]: 1.63 nM. Take `Cc1nnn(-c2ccc(C(F)F)cc2)c1COc1ccc(N2CC(=O)N3C[C@@H]4C[C@]3(CO4)C2)nn1` [Example 177, (3S,9aR)-8-(6-((1-(4-(Difluoromethyl)phenyl)-4-methyl-1H-1,2,3-triazol-5-yl)methoxy)pyridazin-3-yl)tetrahydro-1H-3,9a-methanopyrazino[2,1-c][1,4]oxazin-6(7H)-one]: the Ki came out at 1.26 nM. In the case of `Cc1nnn(-c2ccc(C(F)F)cc2)c1COc1ccc(N2CCN(c3cnn(C(F)F)c3)C(=O)C2)nn1` [Example 113, 1-(1-(Difluoromethyl)-1H-pyrazol-4-yl)-4-(6-((1-(4-(difluoromethyl)phenyl)-4-methyl-1H-1,2,3-triazol-5-yl)methoxy)pyridazin-3-yl)piperazin-2-one] it was 1.17 nM; in that of `Cc1nnn(-c2ccc(C(F)F)cc2)c1COc1ccc(N2CCN3C(=O)NC(=O)[C@@H]3C2)nn1` [Example 118, (S)-7-(6-((1-(4-(Difluoromethyl)phenyl)-4-methyl-1H-1,2,3-triazol-5-yl)methoxy)pyridazin-3-yl)tetrahydroimidazo[1,5-a]pyrazine-1,3(2H,5H)-dione], 1.66 nM. Take `Cc1nnn(-c2ccc(C(F)F)cc2F)c1COc1ccc(N2CCNC(=O)C2)nn1` [Example 167, 4-(6-((1-(4-(Difluoromethyl)-2-fluorophenyl)-4-methyl-1H-1,2,3-triazol-5-yl)methoxy)pyridazin-3-yl)piperazin-2-one]: the Ki was 1.08 nM. The same measure for `Cc1nnc(C2CN(c3ccc(OCc4c(C)nnn4-c4ccc(C(F)F)cc4)nn3)C2)o1` [Example 53, 2-(1-(6-((1-(4-(Difluoromethyl)phenyl)-4-methyl-1H-1,2,3-triazol-5-yl)methoxy)pyridazin-3-yl)azetidin-3-yl)-5-methyl-1,3,4-oxadiazole]: 2.97 nM; for `COCCNC(=O)C1CN(c2ccc(OCc3c(C)nnn3-c3ccc(C(F)F)cc3)nn2)C1` [Example 49, 1-(6-((1-(4-(Difluoromethyl)phenyl)-4-methyl-1H-1,2,3-triazol-5-yl)methoxy)pyridazin-3-yl)-N-(2-methoxyethyl)azetidine-3-carboxamide]: 6.5 nM; for `Cc1nnn(-c2ccc(C(F)F)cc2)c1COc1ccc(N2CCN(c3cnn(C)c3)C(=O)C2)nn1` [Example 111, 4-(6-((1-(4-(Difluoromethyl)phenyl)-4-methyl-1H-1,2,3-triazol-5-yl)methoxy)pyridazin-3-yl)-1-(1-methyl-1H-pyrazol-4-yl)piperazin-2-one]: 0.93 nM. The same measure for `Cc1nnn(-c2ccc(C(F)F)cc2)c1COc1ccc(N2CCN[C@H](C(N)=O)C2)nn1` [Example 32, (S)-4-(6-((1-(4-(Difluoromethyl)phenyl)-4-methyl-1H-1,2,3-triazol-5-yl)methoxy)pyridazin-3-yl)piperazine-2-amide]: 2.94 nM; for `Cc1nnn(-c2ccc(C(F)F)cc2)c1COc1ccc(N2CCN3c4ncccc4NC(=O)[C@@H]3C2)nn1` [Example 194, (S)-8-(6-((1-(4-(Difluoromethyl)phenyl)-4-methyl-1H-1,2,3-triazol-5-yl)methoxy)pyridazin-3-yl)-7,8,9,10-tetrahydro-5H-pyrazino[1,2-a]pyrido[3,2-e]pyrazin-6(6aH)-one]: 0.8 nM.

Regarding `Cc1nnn(-c2ccc(C(F)F)cc2)c1COc1ccc(N2CCN(CCN3CCC(F)(F)CC3)C(=O)C2)nn1` [Example 109, 4-(6-((1-(4-(Difluoromethyl)phenyl)-4-methyl-1H-1,2,3-triazol-5-yl)methoxy)pyridazin-3-yl)-1-(2-(4,4-difluoropiperidin-1-yl)ethyl)piperazin-2-one], the inhibitory constant (Ki) worked out at 1.53 nM. Regarding `COc1cnccc1NC(=O)C1CN(c2ccc(OCc3c(C)nnn3-c3ccc(C(F)F)cc3)nn2)C1` [Example 149, 1-(6-((1-(4-(Difluoromethyl)phenyl)-4-methyl-1H-1,2,3-triazol-5-yl)methoxy)pyridazin-3-yl)-N-(3-methoxypyridin-4-yl)azetidine-3-carboxamide], the Ki stood at 2.04 nM.

Values taken from patent US20250136581A1, “SUBSTITUTED TRIAZOLE DERIVATIVE, PREPARATION METHOD THEREFOR, PHARMACEUTICAL COMPOSITION THEREOF, AND USE THEREOF” (SHANGHAI SIMR BIOTECHNOLOGY CO., LTD., priority 2021, published 2025).
